Like-named read-outs stand apart in the source and are kept apart here.
What was measured:
P. aeruginosa [1] = test: Placebo-controlled clinical study in bronchiectasis: sputum P. aeruginosa density and microbiological response; type: in vivo, Pseudomonas aeruginosa
Description: A placebo-controlled, double-blind, randomized study was conducted to evaluate the microbiological efficacy and safety of inhaled tobramycin for treatment of patients with bronchiectasis and P. aeruginosa. […] The change in P. aeruginosa density in sputum was measured at Weeks 2, 4, and 6 (2 weeks post-treatment). Clinicians assessed patients' general medical condition at Week 6. Safety parameters included adverse events, serum chemistry, and airway reactivity. […] At Week 6, P. aeruginosa was eradicated in 35% of TSI-treated patients but was detected in all placebo patients. […] Few patients withdrew due to adverse events. TSI holds promise as a therapy for patients with bronchiectasis. The study was conducted as follows: […] Patients were excluded if they had CF, a diagnosis of allergic bronchopulmonary aspergillosis, an acute pulmonary process requiring medical intervention as indicated by a new infiltrate on a chest radiograph, significant recent hemoptysis, or had received antibiotics within two weeks of the screening visit. Eligible patients were randomly assigned in blocks of two to parallel groups at each study center to receive either TSI or placebo. […] At all study visits, vital signs were measured, adverse events were recorded, and a sputum sample was collected for quantitative microbiology and susceptibility testing. […] At Week 4, airway reactivity was again monitored, a medical exam was performed, and laboratory tests that were performed at screening were repeated. […] The primary efficacy endpoint was the change in P. aeruginosa density (expressed as log10 CFU/g sputum) from baseline to Week 4. […] (2) an investigator's assessment of change in the patient's general medical condition (“improved” or “not improved”) throughout the study (recorded at Week 6); (3) the percent change in FEV1% predicted and in forced vital capacity (FVC) % predicted from Week 0 to Week 4. […] P. aeruginosa was considered eradicated if it was not detected at Week 6 or if the patient was unable to produce a sputum sample at Week 6 and P. aeruginosa was not isolated at Week 4. […]

P. aeruginosa [2] = conditions: CF patients, 300 mg inhaled twice daily, cited from earlier work
P. aeruginosa isolates = conditions: initial sputum cultures, CF patients, 1993; cited from earlier work
Gram-negative bacteria = conditions: cited from earlier work
P. aeruginosa [3] = conditions: cited from earlier work
[4] = purulent sputum; cited from earlier work
[5] = 71 CF patients, 600 mg tid aerosolized

Structure (SMILES): NC[C@H]1O[C@H](O[C@H]2[C@H](O)[C@@H](O[C@H]3O[C@H](CO)[C@@H](O)[C@H](N)[C@H]3O)[C@H](N)C[C@@H]2N)[C@H](N)C[C@@H]1O [tobramycin]
- antimicrobial efficacy relative to cystic fibrosis patients (P. aeruginosa [1]; bronchiectasis versus cystic fibrosis): greater than 10,000 fold
- factor by which colony forming units (CFU) of P. aeruginosa are decreased (P. aeruginosa [1]; in some patients, endobronchial administration): ≥ 10^6
- bronchiectasis patients with complete eradication (P. aeruginosa [1]; summary statement): 20%
- average decrease in P. aeruginosa density (P. aeruginosa [2]; 28 days on/28 days off, Week 0 to Week 20): 0.8 log10
- average decrease in P. aeruginosa density (P. aeruginosa [2]; Week 0 to Week 4): 1.9 log10
- isolates with MICs <16 μg/mL (P. aeruginosa isolates): 90%
- isolates with MICs ≦128 μg/mL (P. aeruginosa isolates): 98%
- concentrations effective in inhibiting the growth of many Gram-negative bacteria (Gram-negative bacteria): < 4 µg/mL
- spirometry (P. aeruginosa [3]; [5]): improved spirometry
- sputum density of P. aeruginosa (P. aeruginosa [3]; [5]): significant reduction
- emergence of P. aeruginosa strains highly resistant to tobramycin (MIC >128 μg/mL) (P. aeruginosa [3]; versus placebo): comparable in the placebo and treatment groups
- higher concentrations required in the sputum to overcome inhibitory effects [4]: 5-10 ×
